1 compound from patent publication US8088822B2, “Use of fenretinide or bioactive derivatives thereof and pharmaceutical compositions comprising the same” (priority 2008, dated 2012) can be followed below.

One series relates to U937. Description: Growth inhibition and combination index in AML cell line U937. The class given is cell-based. Particulars: U937, single agent. The method, then: The combination Index (CI) was used to test the combination effect of fenretinide and Ara-C on growth inhibition in AML cell line U937. The CI was calculated according to the classic isobologram equation: CI=d1/D1+d2/D2. In this equation, D1 and D2 represent the doses of drug 1 and drug 2 alone, required to produce x % effect, and d1 and d2 are the doses of drugs 1 and 2 in combination required to produce the same effect. And CI<1, CI>1 and CI=1 represent the synergism, […], respectively.

The test system of series [1] is normal hematopoietic stem cells (HSC). Description: Apoptosis/toxicity in normal hematopoietic stem cells. The settings on record: representative specimen. It counts as cell-based, human. The source says: Fresh bone marrow (BM) cells were obtained from 38 patients with CML and 5 non-leukemic donors, 25 AML, 17 ALL, and 8 normal specimens with informed consent according to the Declaration of Helsinki. Approval was obtained from Institutional Review Board at the School of Medicine in Shanghai Jiao Tong University. BM mononuclear cells were isolated by Ficoll density gradient centrifugation (Shanghai Second Reagent Factory, Shanghai, China). CD34^+ Cell were selected using EasySep® Human CD34 Positive Selection kit (Stem Cell Technologies, Vancouver, BC, Canada) according to the manufacturer's instructions. The purity of CD34 cells ranged between 92 and 98% in all samples detennined by flow cytometry. The CD34^+ cells were cultured in a serum-free medium (StemPro 34; Gibco BRL, Gaithersburg, Md.) supplemented with growth factors (PeproTech, London, United Kingdom) (20). The growth factors consisted of GM-CSF (200 pg/mL), G-CSF (1 ng/mL); SCF (200 pg/mL); LIF (50 pg/mL), MIP-1α (200 pg/mL) and IL-6 (1 ng/mL).
Primitive AML and CML subpopulations (CD34^+ cells) were identified using CD34-PE in combination with CD38-APC, and followed by double-labeling with 7AAD and Annexin V antibodies for apoptosis assessment. […] Subsequently, the samples were incubated at room temperature for 15 minutes and analyzed by flow cytometry. […]

In series [2] the test system is HL60 cells. The experiment in a line: Intracellular ROS accumulation, DCFH-DA staining, HL60 cells. Particulars: 3 h; for increase of ROS level: proliferating HL60 cells; for fold change of ROS: quiescent HL60 cells. The class given is cell-based. The method, then:
(§1) HL60 cells were cultured in RPMI 1640 supplemented (i) with or (ii) without 10% fetal bovine serum to obtain proliferating and quiescent leukemia cells respectively. Serum-deprived quiescent leukemic cells and proliferating leukemic cells were then cultured in media containing 0.5% FBS, and treated with 1 μM and 2.5 μM fenretinide, and also with chemotherapeutics as controls, 20 μM idarubicin (IDA) and 5 μM cytarabine (Ara-C).
The intracellular generation of reactive oxygen species (ROS) was measured using of the oxidation-sensitive fluorescent dye 2,7-dichlorofluorescin diacetate (DCFH-DA) (Molecular Probes). After 3 h exposure of fenretinide, 2×10^5 cells were harvested and washed once with PBS, then loaded with 1 ml PBS containing 10 μM of DCFH-DA. The cells were then incubated at 37° C. for 30 min and the fluorescence intensity was measured at 530 nm.
(§2) To examine the effects of fenretinide on proliferating and quiescent leukemia cells, HL60 cells were chosen as serum deprived quiescent leukemic cell model obtained when incubated in RPMI 1640 without serum for 48 h, with G0/G1 phase cells (being in quiescent state) accounting up to 59.9%. Serum-deprived quiescent leukemic cells and proliferating leukemic cells were then cultured in media containing 0.5% FBS, and treated with 1 μM and 2.5 μM fenretinide, and also with chemotherapeutics as controls, 20 μM idarubicin (IDA) and 5 μM cytarabine (Ara-C). […] Fenretinide induces intracellular production of ROS, lowers mitochondrial transmembrane potential (MTP), and eventually leads to apoptosis in a variety of malignancies. We measured MTP induced by fenretinide in proliferating and quiescent HL60 cells, as examined through rhodamine 123 and propidium iodide staining and followed by flow cytometry analysis. […] We further measured intracellular ROS abundance induced by fenretinide. […] After incubation with 1 μM and 2.5 μM fenretinide for 3 h, the ROS level of proliferating cells increased by 1.77 and 2.6 fold, respectively.

In series [3] the test system is HL60 cells. The experiment in a line: Annexin V apoptosis assay in proliferating and serum-deprived quiescent HL60 cells. It counts as cell-based. The settings on record: 24 h. The method, then: as §1
(§3) 2×10^5 cultured cells were used for evaluating apoptosis using an ApoAlert Annexin V-FITC Apoptosis Kit (BD Biosciences). Cells were washed once by PBS, resuspended in 200 μl Annexin-V binding buffer, and then stained with Annexin V-FITC 5 μl, PI 10 μl for 15 min at room temperature in the dark. Cells were subsequently analyzed by flow cytometry.
as §2

The next series relates to K562. The experiment in a line: Apoptosis in CML cell line K562. The class given is cell-based. The settings on record: 4 μM fenretinide, 0.25 μM imatinib, 0.1 μM MG132, alone or combined. The method, then: as §3

As to `CC1=C(/C=C/C(C)=C/C=C/C(C)=C/C(=O)Nc2ccc(O)cc2)C(C)(C)CCC1` [fenretinide, N-(4-hydroxyphenyl)retinamide], the “dose alone required for growth inhibition rate of 65.47%” value in the series with U937 came out at 2.72 µM. Moreover, the “change in the cell proportion of normal HSC” value in series [1] turned out to be 5.36%. In series [1] (fenretinide alone or co-treatment with imatinib), the “apoptosis in normal HSC” value came to 19.08%. Also, the “increase of ROS level” value in the series on HL60 cells [2] (1 μM fenretinide) came out at 1.77 fold; in the series with HL60 cells [2] (2.5 μM fenretinide), 2.6 fold. Further, the “fold change of ROS” value in the series with HL60 cells [2] (1 μM fenretinide) was 3.83 fold; with HL60 cells [2] (2.5 μM fenretinide), 4.3 fold. Moreover, the “percentage of apoptotic cells” value with HL60 cells [3] (proliferating HL60 cells, 1 μM fenretinide) was 11.8%; with HL60 cells [3] (proliferating HL60 cells, 2.5 μM fenretinide) it was 36.8%; in the series with HL60 cells [3] (serum-deprived quiescent HL60 cells, 1 μM fenretinide) it was 39.5%; with HL60 cells [3] (serum-deprived quiescent HL60 cells, 2.5 μM fenretinide), 52.7%. For the same compound, the apoptosis rate in the series with K562 stood at 2.46%.
